Test results published in patent US11730731B2 (INVENTAGE LAB INC., priority 2021, dated 2023).
Where a name gives a salt, the structure may show the parent alone.

What was measured:
[1] = test system: pro-inflammatory cytokines (TNF-α, IL-1β, IL-6, IL-17, iNOS) in Raw 264.7 cells; experiment: RT-qPCR of LPS-induced pro-inflammatory cytokine expression in Raw 264.7 cells; conditions: LPS 1 ug/ml, 0.5, 1, 10, 100 uM, 6 hours
Description: (§4) Lipopolysaccharide (LPS) was purchased from Sigma-Aldrich (St. Louis, Mo., USA).

[2] = test system: p65 NF-κB; experiment: Western blotting of NF-κB activity in LPS-treated SW982 cells; format: cell-based, human; conditions: LPS 1 ug/ml, 0.5, 1, 10, 100 uM, 30 minutes, naltrexone effect at 1 uM
Description: (§1) 1× Cell lysis buffer (Cell signaling, CA, USA) was mixed with protease and a phosphatase inhibitor and added to SW982 cells. After extracting the protein from the cells, the concentration was measured, and the same amount of protein was developed on an SDS-polyacrylamide gel, and transferred to an ECL nitrocellulose membrane (Amersham Pharmacia Biotech, Inc., Piscataway, N.J., USA) and blocked with nonfat dried milk for 1 hour. Thereafter, the reaction was performed with the first antibody (p65 NF-κB, phospho p65 NF-κB or calnexin; Cell signaling, CA, USA), while shaking at 4° C. for 24 hours. Then, after shaking and washing 3 times for 10 minutes with PBST buffer, the secondary antibody was incubated with anti-mouse or anti-rabbit HRP-conjugated secondary antibody for 1 hour at room temperature, and reacted with the protein band on the membrane using Supersignal west pico ECL solution (Thermo Fisher Scientific Inc.). The results were visualized with the Bio-Rad Gel Documentation system (Bio-Rad Laboratories, Hercules, Calif., USA), and the results were shown in FIG. 26.
as §1, with “phospho p65 NF-κB, p-ERK, ERK, p-JNK, JNK, p-p38, p38 or calnexin;” for “phospho p65 NF-κB or calnexin;”, “Scientific Inc.). […]” for “Scientific Inc.). The results were visualized with the Bio-Rad Gel Documentation system (Bio-Rad Laboratories, Hercules, Calif., USA), and the results were shown in FIG. 26.”

[3] = test system: MAPKs (ERK, JNK, p38); experiment: Western blotting of MAPKs activity in LPS-treated SW982 cells; format: cell-based, human; conditions: LPS 1 ug/ml, 0.5, 1, 10, 100 uM, 30 minutes, naltrexone effect at 1 uM
Description: (§2) Western blotting was performed in the same manner as in Example 6.3. The first antibody used at this time is an antibody against p-ERK, ERK, p-JNK, JNK, p-p38, p38 and calnexin (Cell signaling, CA, USA), and the secondary antibody is anti-mouse or anti-rabbit HRP-binding secondary antibody.
1× Cell lysis buffer (Cell signaling, CA, USA) was mixed with protease and a phosphatase inhibitor and added to SW982 cells. After extracting the protein from the cells, the concentration was measured, and the same amount of protein was developed on an SDS-polyacrylamide gel, and transferred to an ECL nitrocellulose membrane (Amersham Pharmacia Biotech, Inc., Piscataway, N.J., USA) and blocked with nonfat dried milk for 1 hour. Thereafter, the reaction was performed with the first antibody (p65 NF-κB, phospho p65 NF-κB, p-ERK, ERK, p-JNK, JNK, p-p38, p38 or calnexin; Cell signaling, CA, USA), while shaking at 4° C. for 24 hours. Then, after shaking and washing 3 times for 10 minutes with PBST buffer, the secondary antibody was incubated with anti-mouse or anti-rabbit HRP-conjugated secondary antibody for 1 hour at room temperature, and reacted with the protein band on the membrane using Supersignal west pico ECL solution (Thermo Fisher Scientific Inc.). The results were visualized with the Bio-Rad Gel Documentation system (Bio-Rad Laboratories, Hercules, Calif., USA), and the results are shown in FIG. 35.

[4] = test system: pro-inflammatory cytokines (TNF-α, IL-1β, IL-6, IL-17, iNOS) in SW982 cells; experiment: RT-qPCR of LPS-induced pro-inflammatory cytokine expression in SW982 cells; conditions: LPS 1 ug/ml, 0.5, 1, 10, 100 uM, 6 hours
Description: as §4

[5] = test system: MAPKs (ERK, JNK, p38); experiment: Western blotting of MAPKs activity in LPS-treated Raw 264.7 cells; format: cell-based, mouse; conditions: LPS 1 ug/ml, 0.5, 1, 10, 100 uM, 30 minutes
Description: as §2
Western blotting was performed in the same manner as in Example 7.4.

[6] = test system: p65 NF-κB; experiment: Western blotting of NF-κB activity in LPS-treated Raw 264.7 cells; format: cell-based, mouse; conditions: LPS 1 ug/ml, 0.5, 1, 10, 100 uM, 30 minutes
[7] = test system: experimental autoimmune encephalomyelitis (EAE); experiment: EAE clinical score in experimental autoimmune encephalomyelitis mice (multiple sclerosis model); format: in vivo; conditions: Example 5, EAE mouse; Q-DDS 1 mg/mouse sc once on day 3; Fytarex 3 mg/kg oral daily; Revia oral daily; mean±SEM
Description: As an experimental autoimmune encephalomyelitis mouse model (Mouse Experimental Autoimmune Encephalomyelitis: EAE), 6 to 10 week-old female mice of C57BL/6 strain were prepared.
Myelin-oligodendrocyte glycoprotein (MOG) was dissolved in phosphate-buffered saline (PBS) to be 1 mg/mL, and was emulsified by mixing at 1:1 (v/v) with 5 mg/mL Complete Freund's adjuvant. 100 μl of this was subcutaneously injected into both sides of the mouse, and then 400 μl of 2 pg/mL pertussis toxin was intraperitoneally injected (first immunization, day 0). On the second day, 400 μl of 2 μg/mL pertussis toxin was intraperitoneally injected a second time. On the third day after the first immunization, the test was performed by separating the experimental group.
Then, the occurrence and extent of clinical symptoms were regularly observed until the end of the experiment (The 30th day). The clinical symptom level was assigned a score of 0 to 5 after evaluating the functionality of the tail and four legs according to the criteria in Table 34 below, and was used as the EAE clinical score.

[8] = test system: experimental autoimmune encephalomyelitis (EAE); experiment: Spinal cord histology, Luxol Fast Blue staining (demyelination score), EAE mice; format: in vivo, mouse
Description: (§3) After mouse euthanasia, spinal cord tissue was extracted, hematoxylin/eosin staining and Luxol Fast Blue staining were performed, and MBP-targeted immunohistochemical staining was performed, and histological evaluation was performed through blind evaluation.
On the 30th day which is the last day of the experiment, mouse was sacrificed, and the mouse spinal cord tissue was extracted and paraffin-embedded slides were prepared and then stained with Luxol Fast Blue, and the spinal cord tissue was photographed at 50 and 200 magnifications. In Luxol Fast Blue staining, myelin is stained from blue to green, and nerves are stained purple, and through this, the degree of demyelination was analyzed in the EAE model by confirming the neural structure in the spinal cord. Demyelination was analyzed according to the criteria described in Table 38 below and measured as a score.

[9] = test system: myelin basic protein (MBP); experiment: Immunohistochemistry staining of spinal cord with anti-myelin basic protein antibody, EAE mice; format: in vivo; conditions: day 30, spinal cord IHC, Fytarex 3 mg/kg, Revia 1 mg/kg, Q-DDS 1 mg/mouse
Description: as §3
On the 30th day which is the last day of the experiment, mouse was sacrificed, and the mouse spinal cord tissue was extracted and paraffin-embedded slides were prepared and then myelin basic protein (MBP) was stained immunohistochemically, and the spinal cord tissue was photographed at 50 and 200 magnifications. This is to confirm demyelination through immunohistochemical analysis using an antibody against myelin basic protein (MBP), a component of myelin.

[10] = test system: experimental autoimmune encephalomyelitis (EAE); experiment: Spinal cord histology, hematoxylin/eosin staining (inflammation score), EAE mice; format: in vivo; conditions: day 30, spinal cord, Fytarex 3 mg/kg, Revia 1 mg/kg, Q-DDS 1 mg/mouse
Description: as §3
On the 30th day which is the last day of the experiment, mouse was sacrificed, and the mouse spinal cord tissue was extracted and paraffin-embedded slides were prepared and then stained with hematoxylin/eosin, and the spinal cord tissue was photographed at 50 and 200 magnifications. Then, histological scores were measured according to the histological evaluation criteria of Table 36 below to evaluate the distribution of inflammatory cells.

SMILES: Oc1ccc2c3c1O[C@H]1[C@H](O)CC[C@@]4(O)[C@@H](C2)N(CC2CC2)CC[C@]314 [6β-naltrexol]
- expression of cytokines (iNOS, IL-1β, IL-6, TNF-α) induced by LPS [1]: suppressed at all concentrations
- phosphorylation of p65 NF-κB increased by LPS [2]: no inhibitory effect
- phosphorylation of MAPKs (ERK1/2, JNK, p38) increased by LPS [3]: no inhibitory effect
- expression of cytokines (iNOS, IL-1β, IL-6, TNF-α) induced by LPS [4]: suppressed at all concentrations
- phosphorylation of MAPKs (ERK1/2, JNK, p38) [5]: no inhibitory effect
- p65 NF-κB phosphorylation increased by LPS [6]: inhibited

SMILES: CCCCCCCCc1ccc(CCC(N)(CO)CO)cc1 [Fytarex®, Fingolimod]
- EAE clinical score [7]: 1.67±0.13

SMILES: O=C1CC[C@@]2(O)[C@H]3Cc4ccc(O)c5c4[C@@]2(CCN3CC2CC2)[C@H]1O5 [Revia ®]
- Demyelination score (histological score), Mean ([8]; EAE mice, day 30, spinal cord, Luxol Fast Blue, Fytarex 3 mg/kg, Revia 1 mg/kg, Q-DDS 1 mg/mouse): 0.61
- MBP positive area/total spinal area, Mean [9]: 58.23
- Inflammation score (histological score), Mean [10]: 1.42

SMILES: O=C1CC[C@@]2(O)[C@H]3Cc4ccc(O)c5c4[C@@]2(CCN3CC2CC2)[C@H]1O5 [Revia®, naltrexone hydrochloride]
- demyelination histological score (Luxol Fast Blue, spinal cord) ([8]; Example 5, EAE mouse, day 30, Q-DDS 1 mg/mouse sc once, Fytarex and Revia oral daily, mean±SEM): decrease in histological score and demyelination
